Counter-ions that a name gives are not always drawn. Like-named read-outs stand apart in the source and are kept apart here.
Biological target: T1, horseradish peroxidase (HRP) tagged delF508-CFTR (Homo sapiens, UniProt P13569, DEL508-508)
T1 construct: expressed in transfected cells
Test: Measurement of delF508-CFTR-HRP surface expression in CFBE41o- cells;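 for DelF508-CFTR-HRP Amax %: percent efficacy relative to reference corrector lumacaftor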
Type: cell-based
Settings: CFBE41o- cells; for EC50: read-out: DelF508-CFTR-HRP EC50; for Emax: read-out: DelF508-CFTR-HRP Amax %
Procedure, shortened: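 CFBE41o- bronchial epithelial cells stably expressing delF508-CFTR with HRP in the fourth extracellular loop; expression induced 48h with 500 ng/mL doxycycline, then compounds added (top 10 μM, 10-point 3-fold series, ≤0.5% DMSO) for 24h at 37° C. Surface HRP measured by luminescence with cell-impermeant substrate; EC50 from logistic fit of triplicates, plate-normalized to lowest concentration; efficacy also relative to a reference corrector.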

[1] = mean of at least two replicates
[2] = delF508-CFTR-HRP surface expression

T1 sequence (P13569 with tags, fused parts or gaps DEL508-508): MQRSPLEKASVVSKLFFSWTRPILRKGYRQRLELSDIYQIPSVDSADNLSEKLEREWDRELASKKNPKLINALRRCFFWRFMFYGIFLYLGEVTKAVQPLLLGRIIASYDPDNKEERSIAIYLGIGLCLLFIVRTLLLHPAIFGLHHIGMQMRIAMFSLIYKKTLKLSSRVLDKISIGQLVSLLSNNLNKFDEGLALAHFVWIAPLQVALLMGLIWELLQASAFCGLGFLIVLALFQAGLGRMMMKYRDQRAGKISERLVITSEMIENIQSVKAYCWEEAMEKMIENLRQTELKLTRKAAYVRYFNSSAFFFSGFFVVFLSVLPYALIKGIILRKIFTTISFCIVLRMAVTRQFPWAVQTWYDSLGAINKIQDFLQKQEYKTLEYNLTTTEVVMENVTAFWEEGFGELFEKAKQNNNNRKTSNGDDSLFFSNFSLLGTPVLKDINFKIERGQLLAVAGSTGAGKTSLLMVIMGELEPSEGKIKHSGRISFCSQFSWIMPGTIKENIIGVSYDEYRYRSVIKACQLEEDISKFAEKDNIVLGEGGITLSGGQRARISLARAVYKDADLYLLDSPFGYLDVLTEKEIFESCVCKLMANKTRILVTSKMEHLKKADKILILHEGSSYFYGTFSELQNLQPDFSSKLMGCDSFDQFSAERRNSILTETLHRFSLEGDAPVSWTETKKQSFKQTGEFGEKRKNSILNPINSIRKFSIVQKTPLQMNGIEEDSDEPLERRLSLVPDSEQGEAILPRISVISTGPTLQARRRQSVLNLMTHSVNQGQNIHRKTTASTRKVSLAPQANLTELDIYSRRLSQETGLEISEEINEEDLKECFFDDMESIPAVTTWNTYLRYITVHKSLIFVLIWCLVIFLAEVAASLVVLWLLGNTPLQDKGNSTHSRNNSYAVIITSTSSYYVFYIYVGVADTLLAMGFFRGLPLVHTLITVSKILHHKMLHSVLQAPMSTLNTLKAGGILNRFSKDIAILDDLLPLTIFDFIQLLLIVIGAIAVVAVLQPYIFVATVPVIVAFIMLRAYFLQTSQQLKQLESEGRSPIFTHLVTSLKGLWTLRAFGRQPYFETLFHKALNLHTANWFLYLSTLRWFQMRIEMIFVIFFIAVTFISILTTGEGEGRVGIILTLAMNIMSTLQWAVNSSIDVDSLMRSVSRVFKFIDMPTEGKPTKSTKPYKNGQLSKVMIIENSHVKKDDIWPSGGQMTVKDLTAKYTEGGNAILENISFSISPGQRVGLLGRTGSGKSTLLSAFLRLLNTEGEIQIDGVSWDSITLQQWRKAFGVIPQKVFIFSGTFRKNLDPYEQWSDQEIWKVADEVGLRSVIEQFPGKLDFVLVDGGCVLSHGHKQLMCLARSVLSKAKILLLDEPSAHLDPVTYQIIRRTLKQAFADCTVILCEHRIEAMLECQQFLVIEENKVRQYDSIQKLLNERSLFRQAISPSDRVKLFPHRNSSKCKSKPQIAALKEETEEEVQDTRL

SMILES | EC50 [1] [nM] | Emax (surface expression Amax) [%] | Emax [2] [%] | EC50 [2] [nM]
CC1(C(=O)O)CCN(c2cc(S(=O)(=O)Nc3ccc(C(F)(F)F)c(-c4ccccc4C4CCC4)n3)ccn2)CC1 [Example 378, 1-(4-(N-(6-(2-cyclobutylphenyl)-5-(trifluoromethyl)pyridin-2-yl)sulfamoyl)pyridin-2-yl)-4-methylpiperidine-4-carboxylic Acid] | 1360 | 272 | – | –
CCC[C@@H]1CCN(c2cccc(S(=O)(=O)Nc3ccc(Cl)c(-c4cccnc4C(C)C)n3)n2)[C@H]2C[C@H](C(=O)O)[C@@H]12 (racemic) [Example 434, rac-(1SR,5RS,6RS,7SR)-2-(6-(N-(3-chloro-2′-isopropyl-[2,3′-bipyridin]-6-yl)sulfamoyl)pyridin-2-yl)-5-propyl-2-azabicyclo[4.2.0]octane-7-carboxylic Acid] | 2230 | 734 | – | –
Cc1ccccc1-c1nc(NS(=O)(=O)c2cccc(N3CCC4(CC3)CC(C(=O)O)C4)n2)ccc1C(F)(F)F [Example 446, 7-(6-(N-(6-(o-tolyl)-5-(trifluoromethyl)pyridin-2-yl)sulfamoyl)pyridin-2-yl)-7-azaspiro[3.5]nonane-2-carboxylic Acid] | 2110 | 278 | – | –
Cc1cccc(C)c1-c1nc(NS(=O)(=O)c2cccc(N3CCC(NC(=O)OC(C)(C)C)(C(=O)O)CC3)n2)ccc1Cl [Example 268, 4-{[(tert-butoxy)carbonyl]amino}-1-(6-{[5-chloro-6-(2,6-dimethylphenyl)pyridin-2-yl]sulfamoyl}pyridin-2-yl)piperidine-4-carboxylic Acid] | – | – | 103 | 3730
Cc1ccc(F)cc1-c1nc(NS(=O)(=O)c2ccnc(N3CCNCC3)c2)ccc1Cl [Example 327, N-(5-chloro-6-(5-fluoro-2-methylphenyl)pyridin-2-yl)-2-(piperazin-1-yl)pyridine-4-sulfonamide] | – | – | 92.5 | 4260
Cc1ccccc1-c1nc(NS(=O)(=O)c2cccc(N3CC[C@H](C(=O)O)C3)n2)ccc1C(F)(F)F [Example 348, (3S)-1-(6-{[6-(2-methylphenyl)-5-(trifluoromethyl)pyridin-2-yl]sulfamoyl}pyridin-2-yl)pyrrolidine-3-carboxylic Acid] | – | – | 145 | 2830
Cc1ccccc1-c1nc(NS(=O)(=O)c2cccc(N3CC[C@@H](C(=O)O)C3)n2)ccc1C(F)(F)F [Example 349, (3R)-1-(6-{[6-(2-methylphenyl)-5-(trifluoromethyl)pyridin-2-yl]sulfamoyl}pyridin-2-yl)pyrrolidine-3-carboxylic Acid] | – | – | 252 | 1640
Cc1c(F)cccc1-c1nc(NS(=O)(=O)c2cccc(N3CCn4cnnc4C3)n2)ccc1Cl [Example 146, N-(5-chloro-6-(3-fluoro-2-methylphenyl)pyridin-2-yl)-6-(5,6-dihydro-[1,2,4]triazolo[4,3-a]pyrazin-7(8H)-yl)pyridine-2-sulfonamide] | – | – | 59.1 | 4280
COC(=O)C1(C)CCN(c2cccc(S(=O)(=O)Nc3ccc(C(F)(F)F)c(-c4ccccc4C4CC4)n3)n2)CC1 [Example 236, methyl 1-(6-(N-(6-(2-cyclopropylphenyl)-5-(trifluoromethyl)pyridin-2-yl)sulfamoyl)pyridin-2-yl)-4-methylpiperidine-4-carboxylate] | – | – | 602 | 573
Cc1c(C#N)cccc1-c1nc(NS(=O)(=O)c2ccnc(N)c2)ccc1Cl [Example 87, 2-amino-N-(5-chloro-6-(3-cyano-2-methylphenyl)pyridin-2-yl)pyridine-4-sulfonamide] | – | – | 93.8 | 4100
Cc1ccc(Cl)cc1-c1nc(NS(=O)(=O)c2cccc(N3CCC[C@@](C)(C(=O)O)C3)n2)ccc1C(F)(F)F [Example 450, (R)-1-(6-(N-(6-(5-chloro-2-methylphenyl)-5-(trifluoromethyl)pyridin-2-yl)sulfamoyl)pyridin-2-yl)-3-methylpiperidine-3-carboxylic Acid] | 1100 | – | – | –
C[C@@]1(C(=O)O)CCCN(c2cccc(S(=O)(=O)Nc3ccc(C(F)(F)F)c(-c4ccccc4C4CC4)n3)n2)C1 [Example 413, (R)-1-(6-(N-(6-(2-cyclopropylphenyl)-5-(trifluoromethyl)pyridin-2-yl)sulfamoyl)pyridin-2-yl)-3-methylpiperidine-3-carboxylic Acid] | 576 | 906 | – | –
C[C@]1(C(=O)O)CCCN(c2cccc(S(=O)(=O)Nc3ccc(C(F)(F)F)c(-c4ccccc4C4CC4)n3)n2)C1 [Example 429, (S)-1-(6-(N-(6-(2-cyclopropylphenyl)-5-(trifluoromethyl)pyridin-2-yl)sulfamoyl)pyridin-2-yl)-3-methylpiperidine-3-carboxylic Acid] | 838 | 541 | – | –
Cc1c(F)cccc1-c1nc(NS(=O)(=O)c2cccc(N3CCC[C@@](C)(C(=O)O)C3)n2)ccc1C(F)(F)F [Example 417, (3R)-1-(6-{[6-(3-fluoro-2-methylphenyl)-5-(trifluoromethyl)pyridin-2-yl]sulfamoyl}pyridin-2-yl)-3-methylpiperidine-3-carboxylic Acid] | 1880 | – | – | –
Cc1ccccc1-c1cccc(NS(=O)(=O)c2cccc(N3CCC[C@@](C)(C(=O)O)C3)n2)n1 [Example 412, (R)-3-methyl-1-(6-(N-(6-(o-tolyl)pyridin-2-yl)sulfamoyl)pyridin-2-yl)piperidine-3-carboxylic Acid] | 1890 | 221 | – | –
COc1ccc(Cl)c(-c2nc(NS(=O)(=O)c3cccc(N4CCCC(C)(C(=O)O)C4)n3)ccc2C(F)(F)F)c1 (centres unmarked) [Example 414, 1-(6-(N-(6-(2-chloro-5-methoxyphenyl)-5-(trifluoromethyl)pyridin-2-yl)sulfamoyl)pyridin-2-yl)-3-methylpiperidine-3-carboxylic Acid] | 1890 | 684 | – | –
CCOC(=O)C1(C)CCN(c2cccc(S(=O)(=O)Nc3ccc(C(F)(F)F)c(-c4cccc(F)c4C)n3)n2)CC1 [Example 258, ethyl 1-(6-{[6-(3-fluoro-2-methylphenyl)-5-(trifluoromethyl)pyridin-2-yl]sulfamoyl}pyridin-2-yl)-4-methylpiperidine-4-carboxylate] | – | – | 828 | 1390

The next lines start with the values.

EC50 [1] [nM] | Emax (surface expression Amax) [%] | Emax [2] [%] | EC50 [2] [nM] | SMILES
– | – | 327 | 1380 | Nc1cccc(S(=O)(=O)Nc2ccc(Cl)c(-c3c(Cl)cccc3C(F)(F)F)n2)n1 [Example 52, 6-amino-N-(5-chloro-6-(2-chloro-6-(trifluoromethyl)phenyl)pyridin-2-yl)pyridine-2-sulfonamide]
– | – | 141 | 2300 | Nc1cccc(S(=O)(=O)Nc2ccc(C(F)(F)F)c(-c3cccc(C(F)(F)F)c3)n2)n1 [Example 79, 6-amino-N-(5-(trifluoromethyl)-6-(3-(trifluoromethyl)phenyl)pyridin-2-yl)pyridine-2-sulfonamide]
– | – | 386 | 2290 | Cc1cc(F)ccc1-c1nc(NS(=O)(=O)c2cccc(N)n2)ccc1Cl [Example 37, 6-amino-N-(5-chloro-6-(4-fluoro-2-methylphenyl)pyridin-2-yl)pyridine-2-sulfonamide]
– | – | 339 | 1950 | Cc1ccc(F)cc1-c1nc(NS(=O)(=O)c2ccnc(N)c2)ccc1Cl [Example 46, 2-amino-N-(5-chloro-6-(5-fluoro-2-methylphenyl)pyridin-2-yl)pyridine-4-sulfonamide]
– | – | 421 | 1700 | Cc1cc(F)cc(C)c1-c1nc(NS(=O)(=O)c2cccc(N)n2)ccc1Cl [Example 30, 6-amino-N-(5-chloro-6-(4-fluoro-2,6-dimethylphenyl)pyridin-2-yl)pyridine-2-sulfonamide]
– | – | 10 | 4330 | Cc1cccc(C)c1-c1ccc(Cl)c(NS(=O)(=O)c2cccc(N)n2)n1 [Example 96, 6-amino-N-(3-chloro-6-(2,6-dimethylphenyl)pyridin-2-yl)pyridine-2-sulfonamide]
– | – | 499 | 1760 | [2H]C([2H])([2H])c1ccccc1-c1nc(NS(=O)(=O)c2cccc(N)n2)ccc1Cl [Example 20, 6-amino-N-(5-chloro-6-(2-(methyl-d3)phenyl)pyridin-2-yl)pyridine-2-sulfonamide]
– | – | 108 | 3530 | Nc1cccc(S(=O)(=O)Nc2ccc(Cl)c(-c3c(F)cc(F)cc3F)n2)n1 [Example 86, 6-amino-N-(5-chloro-6-(2,4,6-trifluorophenyl)pyridin-2-yl)pyridine-2-sulfonamide]
– | – | 209 | 2420 | Cc1cccc(C)c1-c1cccc(NS(=O)(=O)c2cccc(N)n2)n1 [Example 68, 6-amino-N-(6-(2,6-dimethylphenyl)pyridin-2-yl)pyridine-2-sulfonamide]
– | – | 152 | 2550 | Cc1ccc(NS(=O)(=O)c2cccc(N)n2)nc1-c1ccccc1Cl [Example 77, 6-amino-N-(6-(2-chlorophenyl)-5-methylpyridin-2-yl)pyridine-2-sulfonamide Hydrochloride]
– | – | 41.7 | 2200 | Cc1cc(C#N)ccc1-c1nc(NS(=O)(=O)c2cccc(N)n2)ccc1Cl [Example 91, 6-amino-N-(5-chloro-6-(4-cyano-2-methylphenyl)pyridin-2-yl)pyridine-2-sulfonamide]
– | – | 608 | 1360 | Cc1cccc(C)c1-c1nc(NS(=O)(=O)c2cccc(N)n2)cc(C(F)(F)F)c1Cl [Example 8, 6-amino-N-(5-chloro-6-(2,6-dimethylphenyl)-4-(trifluoromethyl)pyridin-2-yl)pyridine-2-sulfonamide]

Reference: patent publication US11066369B2, “N-(pyridin-2-yl)pyridine-sulfonamide derivatives and their use in the treatment of disease” (Novartis AG, priority 2016, dated 2021)
